For one series, the target named is kinases (Homo sapiens, UniProt P15056, V600E). In words: Invitrogen SelectScreen biochemical kinase profiling, Z'-LYTE assay. The conditions noted are these: kinase BRAF V599E. The text has this:
The Z′-LYTE® biochemical assay employs a fluorescence-based, coupled-enzyme format and is based on the differential sensitivity of phosphorylated and non-phosphorylated peptides to proteolytic cleavage. The peptide substrate is labeled with two fluorophores—one at each end—that make up a FRET pair. In the primary reaction, the kinase transfers the gamma-phosphate of ATP to a single tyrosine, serine or threonine residue in a synthetic FRET-peptide. In the secondary reaction, a site-specific protease recognizes and cleaves non-phosphorylated FRET-peptides. Phosphorylation of FRET-peptides suppresses cleavage by the Development Reagent. Cleavage disrupts FRET between the donor (i.e., coumarin) and acceptor (i.e., fluorescein) fluorophores on the FRET-peptide, whereas uncleaved, phosphorylated FRET-peptides maintain FRET.
Both cleaved and uncleaved FRET-peptides contribute to the fluorescence signals and therefore to the Emission Ratio. The extent of phosphorylation of the FRET-peptide can be calculated from the Emission Ratio.
Test Compounds are screened in 1% DMSO (final) in the well. […] All ATP Solutions are diluted to a 4× working concentration in Kinase Buffer (50 mM HEPES pH 7.5, 0.01% BRIJ-35, 10 mM MgCl2, 1 mM EGTA). ATP Km apparent is previously determined using a Z′-LYTE® assay.
This control yields 100% cleaved peptide in the Development Reaction. […]

The subject of series [1] is 12 Kinases (kinases involved in insulin receptor signaling pathways). In words: Millipore KinaseProfiler enzyme panel. The format is biochemical. The conditions noted are these: D3 peptide 0.1 uM and 1 uM, same 12 kinases. The protocol:
(§1) Kinase assays were performed using the ProfilerPro kinase panel kit available from NovaScreen and were validated using the KinaseProfiler enzyme panel available from Millipore.

For series [2] the test system is unchanged. In words: NovaScreen ProfilerPro kinase panel / screen of 59 receptors and enzymes at 1 μM. The format is biochemical. The conditions noted are these: D3 peptide 1 μM, preliminary results. The protocol:
as §1

In series [3] the test system is STZ-induced diabetic C57BL/6 mice. In words: Multiple low dose streptozotocin (STZ)-induced murine model of Diabetes, efficacy of D3 peptide. The class given is in vivo, male C57BL/6 mice. The conditions noted are these: for mortality / survival during the course of the study: experiment 1, to day 36, FIG. 15. The protocol:
Peptide treatment also delayed the onset of Diabetes (mean blood glucose levels≧300 mg/dL) by approximately 14 days, and reduced peak BG levels by 40% (p<0.01) in treated animals. This naturally occurring peptide may represent a safer alternative to small molecule kinase inhibitors for the control of IDDM and associated complications.
Streptozotocin (Streptozocin, STZ, Zanosar) is a naturally occurring glucosamine-nitrosourea compound that is toxic to insulin producing beta cells in the pancreas. This alkylating agent bears enough similarity to the molecular structure of glucose to be readily transported into beta cells by the highly abundant glucose GLU2 glucose transporter protein. Once inside the cell STZ causes damage to the DNA, resulting in a loss of cellular function.
Twenty five male C57BL/6 mice aged approximately 6 weeks were randomized into 3 groups of 10, 10 and 5 animals. Beginning on day −6, non-fasting blood glucose (BG) levels for all animals were determined twice weekly using an Ascencia Contour blood glucose reader (Beyer). […] Groups 1 and 3 were intraperitoneally administered 200 μl sterile water alone. Injections continued in a similar fashion every 3 days for the duration of the experiment. Beginning on day 0, Groups 2 and 3 also received 50 mg/kg of STZ in 200 μl of sterile water via the intraperitoneal route for 5 consecutive days. Group 1 animals received a mock intraperitoneal injection of 200 μl of sterile water during the same period (see Table 17). Animals were allowed access to food and water ad libitum and this treatment schedule was followed until day 36.
In experiment 1, animals were fed normal mouse chow for the duration of the experiment and a fresh vial of STZ was used. Blood glucose measurements for each individual animal were recorded twice weekly for the duration of the experiment. The blood glucose levels in the non diabetic control animals remained stable at approximately 150 mg/dl. However, immediately following the administration of STZ to the two experimental groups, blood glucose levels increased steadily over time and reached a maximum at approximately day 15. No difference in blood glucose levels were observed between D3 treated and untreated STZ-induced animals.
For the duration of the experiment, the mean blood glucose level of normal control animals was approximately 150 mg/dl. For the purposes of this study, a blood glucose reading in STZ-induced animals more than 2-fold higher than normal (i.e. ≧300 mg/dl) was considered to indicate a diabetic animal. Using this criterion, the incidence and time to onset of diabetes in the treated and untreated STZ groups was determined. […] For both STZ groups, the onset of Diabetes began as early as day 4 post STZ administration. All of the untreated STZ animals were classed as diabetic by day 10.
In experiment 2, animals were fed a high carbohydrate diet (˜50% sucrose) for the duration of the experiment. An older stock vial of STZ was used. Blood glucose measurements for each individual animal were recorded twice weekly for the duration of the experiment. As expected, the blood glucose levels in the non diabetic control animals remained below 150 mg/dl. […] This trend was maintained for the entire duration of the experiment.
For the duration of the experiment, the mean blood glucose level of normal control animals was approximately 150 mg/dl. For the purposes of this study, a blood glucose reading in STZ-induced animals more than 2-fold higher than normal (i.e. ≧300 mg/dl) was considered to indicate a diabetic animal. Using this criterion, the incidence and time to onset of Diabetes in the treated and untreated STZ groups was determined. […] For the untreated STZ group, Diabetes onset began as early as day 8 post STZ administration, and 100% of animals were diabetic by day 18. […] By day 36 only 70% of animals in the D3 treated group were classified as diabetic. […]

[4] abbreviates: experiment 1, normal mouse chow, fresh vial of STZ.
Where [5] appears, read: experiment 2, high carbohydrate diet.

Entries after “also recorded” stand apart in the source; their conditions may differ.

Chain of kinases (P15056 whole entry V600E): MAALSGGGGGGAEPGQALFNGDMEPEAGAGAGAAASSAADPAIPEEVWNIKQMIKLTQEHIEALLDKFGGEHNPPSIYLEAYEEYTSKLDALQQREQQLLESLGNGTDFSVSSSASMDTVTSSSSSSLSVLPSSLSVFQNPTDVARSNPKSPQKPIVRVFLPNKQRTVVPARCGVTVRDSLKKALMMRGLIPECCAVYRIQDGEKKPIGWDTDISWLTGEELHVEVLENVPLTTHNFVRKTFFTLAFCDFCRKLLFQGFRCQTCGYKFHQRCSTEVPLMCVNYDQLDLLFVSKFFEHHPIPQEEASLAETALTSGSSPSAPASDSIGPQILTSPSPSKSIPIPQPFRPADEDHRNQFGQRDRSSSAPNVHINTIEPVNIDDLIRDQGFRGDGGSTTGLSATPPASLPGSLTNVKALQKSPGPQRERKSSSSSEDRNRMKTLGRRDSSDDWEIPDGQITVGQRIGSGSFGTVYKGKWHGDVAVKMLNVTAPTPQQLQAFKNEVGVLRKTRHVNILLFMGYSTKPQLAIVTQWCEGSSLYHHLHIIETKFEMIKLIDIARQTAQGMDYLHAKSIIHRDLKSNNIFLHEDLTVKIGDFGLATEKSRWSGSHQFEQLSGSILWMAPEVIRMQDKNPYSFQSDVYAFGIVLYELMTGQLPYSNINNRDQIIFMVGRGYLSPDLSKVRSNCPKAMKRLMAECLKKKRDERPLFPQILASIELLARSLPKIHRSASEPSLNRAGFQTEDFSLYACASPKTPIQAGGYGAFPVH

Regarding “SGRPPMIVWFNRPFLIAVSHTHGQTILFMAKVINPVGA [D3 peptide, SGRPPMIVWFNRPFLIAVSHTHGQTILFMAKVINPVGA]”, on kinases, the “% Inhibition mean” value is listed as 99.79%. Also, in series [1], the “inhibition of kinases of the panel (confirmation)” value is on record as “specific inhibition activity on 4 out of 7 kinases”. Further, the “inhibition of kinases of the panel” value in series [2] is “specific inhibition activities to 7 kinases”. Besides, in series [3] (36-day prophylactic study, STZ-induced male C57BL/6 mice, 1 mg/kg every 3 days, p<0.01), the “reduction of peak BG levels” value is recorded as 40%. Further, in series [3] (36-day prophylactic study, STZ-induced male C57BL/6 mice, 1 mg/kg of D3 peptide every 3 days), the “delay of the onset of Diabetes (mean blood glucose levels≧300 mg/dL)” value is “approximately 14 days”. In addition, the “time to onset or rate of disease compared to untreated diabetic controls” value in series [3] (FIG. 14, STZ treated animals (experiment 1)) is “No significant differences”. Besides, in series [3] (setting [4]), the “blood glucose levels, D3 treated versus untreated STZ-induced animals” value was “No difference”; the “first signs of Diabetes (blood glucose ≧300 mg/dl), day post STZ administration” value was 4 days; the “rate of disease progression (slope of the graph) versus untreated STZ group” value is on record as “essentially similar”; the “time to establish Diabetes in 100% of animals” value was 15 days. Besides, the “mortality / survival during the course of the study” value in series [3] is “increases survival”. Moreover, in series [3] (listed as D3), the “mortality / survival during the course of the study” value was “no mortality was observed”. Further, in series [3] (setting [5]), the “animals classified as diabetic by day 36” value stood at 70%, the “deaths from diabetic complications or toxic events related to peptide or STZ treatment” value is recorded as “No animals succumbed to diabetic complications or experienced any toxic events”, the “delay of first signs of diabetes versus untreated animals” value is listed as “four” and the “rate of disease progression (slope of the graph)” value is recorded as “much less pronounced”. In series [3] (experiment 2, high carbohydrate diet (~50% sucrose), older stock vial of STZ, 36 days, FIG. 16), the “mean blood glucose levels, D3 treated versus untreated STZ-induced animals” value is “higher than those observed in diabetic animals treated with D3 peptide; also recorded: marked reduction”. The “day on which significant differences (p≦0.05) in mean blood glucose versus untreated diabetic animals were first observed” value in series [3] (experiment 2, high carbohydrate diet, D3 peptide every 3 days) stood at 10 days.

The values above are taken from US7951382B2, “Methods for treatment of type 2 diabetes” (American Type Culture Collection, priority 2006, dated 2011).
